What all share (assay): Post-emergence efficacy, Method A
Common to all, as to assay type: in vivo

Test [1] deals with Echinochloa crus-galli (ECHCG). The settings on record: Echinochloa crus-galli, post-emergence, 312 h, evaluated after 13 days. In short, it runs like this: (§1)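 Post-emergence spray on 14-day-old glasshouse plants (24/16 °C day/night, 14 h photoperiod, 65% humidity). Test material was taken up in acetone and IF50 emulsifier mix, then diluted with sodium lauryl ether sulphate (0.25% or 1%) plus 1% ammonium sulphate. Damage was rated 13 days later, 100 = total.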

The subject of another test is Eleusine indica (ELEIN). The settings on record: Eleusine indica, post-emergence, 312 h, evaluated after 13 days. The gist of the method: as §1
Test [2] relates to Euphorbia heterophylla (EPHHL). The settings on record: Euphorbia heterophylla, post-emergence, 312 h, evaluated after 13 days. In short, it runs like this: as §1
Test [3] deals with Ipomoea hederacea (IPOHE). The settings on record: Ipomoea hederacea, post-emergence, 312 h, evaluated after 13 days. In short, it runs like this: as §1
The next test has as its system Lolium perenne (LOLPE). As to conditions: Lolium perenne, post-emergence, 312 h, evaluated after 13 days. In short, it runs like this:
as §1

For test [4], the system named is Digitaria sanguinalis (DIGSA). The settings on record: Digitaria sanguinalis, post-emergence, 312 h, evaluated after 13 days. In short, it runs like this:
as §1

Test [5] has as its system Chenopodium album (CHEAL). As to conditions: Chenopodium album, post-emergence, 312 h, evaluated after 13 days. The gist of the method:
as §1

The next test has as its system Setaria faberi (SETFA). As to conditions: Setaria faberi, post-emergence, 312 h, evaluated after 13 days. In short, it runs like this:
as §1

Test [6] relates to Amaranthus palmeri (AMAPA). As to conditions: Amaranthus palmeri, post-emergence, 312 h, evaluated after 13 days. In short, it runs like this: as §1
[7] abbreviates: Application rate 500 g/Ha, 100=total damage to plant, 0=no damage to plant, read-out: Control of weed species after post-emergence application, ECHCG.
[8] abbreviates: Application rate 500 g/Ha, 100=total damage to plant, 0=no damage to plant, read-out: Control of weed species after post-emergence application, ELEIN.
Where [9] appears, read: Application rate 500 g/Ha, 100=total damage to plant, 0=no damage to plant, read-out: Control of weed species after post-emergence application, EPHHL.
Where [10] appears, read: Application rate 500 g/Ha, 100=total damage to plant, 0=no damage to plant, read-out: Control of weed species after post-emergence application, IPOHE.
Where [11] appears, read: Application rate 500 g/Ha, 100=total damage to plant, 0=no damage to plant, read-out: Control of weed species after post-emergence application, LOLPE.
[12] abbreviates: Application rate 500 g/Ha, 100=total damage to plant, 0=no damage to plant, read-out: Control of weed species after post-emergence application, DIGSA.
Where [13] appears, read: Application rate 500 g/Ha, 100=total damage to plant, 0=no damage to plant, read-out: Control of weed species after post-emergence application, CHEAL.
[14] abbreviates: Application rate 500 g/Ha, 100=total damage to plant, 0=no damage to plant, read-out: Control of weed species after post-emergence application, SETFA.
[15] abbreviates: Application rate 500 g/Ha, 100=total damage to plant, 0=no damage to plant, read-out: Control of weed species after post-emergence application, AMAPA.
Where [16] appears, read: Application Rate 500 g/Ha, Method A, read-out: Control of weed species after post-emergence application, ECHCG (100=total damage to plant; 0=no damage to plant).
[17] abbreviates: Application Rate 500 g/Ha, Method A, read-out: Control of weed species after post-emergence application, ELEIN (100=total damage to plant; 0=no damage to plant).
Setting [18] is: Application Rate 500 g/Ha, Method A, read-out: Control of weed species after post-emergence application, EPHHL (100=total damage to plant; 0=no damage to plant).
The mark [19] stands for this setting: Application Rate 500 g/Ha, Method A, read-out: Control of weed species after post-emergence application, IPOHE (100=total damage to plant; 0=no damage to plant).
Where [20] appears, read: Application Rate 500 g/Ha, Method A, read-out: Control of weed species after post-emergence application, LOLPE (100=total damage to plant; 0=no damage to plant).
Where [21] appears, read: Application Rate 500 g/Ha, Method A, read-out: Control of weed species after post-emergence application, DIGSA (100=total damage to plant; 0=no damage to plant).
Setting [22] is: Application Rate 500 g/Ha, Method A, read-out: Control of weed species after post-emergence application, CHEAL (100=total damage to plant; 0=no damage to plant).
Setting [23] is: Application Rate 500 g/Ha, Method A, read-out: Control of weed species after post-emergence application, SETFA (100=total damage to plant; 0=no damage to plant).
[24] abbreviates: Application Rate 500 g/Ha, Method A, read-out: Control of weed species after post-emergence application, AMAPA (100=total damage to plant; 0=no damage to plant).

Read-outs that look alike come from different tables or passages of the source.

On to `O=C(O)CC[n+]1ccc(-c2ncc(C(F)(F)F)cn2)cn1` [Compound A129], for which the pest or weed control at 500 g/ha in [1] (setting [7]) is 90%; in the test on Eleusine indica (ELEIN) (setting [8]), 40%; in test [2] (setting [9]), 70%; in test [3] (setting [10]) it was 10%; in the test on Lolium perenne (LOLPE) (setting [11]), 80%; in [4] (setting [12]) it was 60%. Besides, the pest or weed control at 500 g/ha in test [5] (setting [13]) is 50%; in the test on Setaria faberi (SETFA) (setting [14]), 60%; in [6] (setting [15]), 70%.

For `CCOP(=O)(CC[n+]1ccc(-c2cnccn2)cn1)OCC` [Compound A8], the pest or weed control at 500 g/ha in test [1] (setting [7]) was found to be 10%; with Eleusine indica (ELEIN) (setting [8]), 20%; in [2] (setting [9]), 10%; in [3] (setting [10]), 10%; in the test with Lolium perenne (LOLPE) (setting [11]), 0%; in test [4] (setting [12]), 20%. The figures for the pest or weed control at 500 g/ha (in test [5] (setting [13]); in the test with Setaria faberi (SETFA) (setting [14]); in test [6] (setting [15])) were 10%, 20% and 10%, respectively.

For `CS(=O)(=O)c1cnc(-c2cc[n+](CCC(=O)[O-])nc2)nc1` [Compound A46], the pest or weed control at 500 g/ha in [1] (setting [7]) is 30%; in the test on Eleusine indica (ELEIN) (setting [8]) it was 50%; in test [2] (setting [9]), 60%; in test [3] (setting [10]) it was 10%; in the test with Lolium perenne (LOLPE) (setting [11]), 20%; in test [4] (setting [12]), 50%. The pest or weed control at 500 g/ha in [5] (setting [13]) was found to be 10%; in the test on Setaria faberi (SETFA) (setting [14]) it was 50%; in test [6] (setting [15]) it was 70%.

With `Cc1cnc(-c2cc[n+](CCC(=O)[O-])nc2)nc1C` [Compound A96], the pest or weed control at 500 g/ha was determined as 70% in [1] (setting [7]); 40% in the test with Eleusine indica (ELEIN) (setting [8]); 90% in [2] (setting [9]); 40% in test [3] (setting [10]); 60% in the test with Lolium perenne (LOLPE) (setting [11]); 40% in test [4] (setting [12]). The pest or weed control at 500 g/ha in test [5] (setting [13]) was 20%; in the test with Setaria faberi (SETFA) (setting [14]), 70%; in [6] (setting [15]) it was 70%.

For the molecule `NC(=O)c1cnc(-c2cc[n+](CCC(=O)O)nc2)cn1` [Compound A202, 3-[4-(5-carbamoylpyrazin-2-yl)pyridazin-1-ium-1-yl]propanoic acid 2,2,2-trifluoroacetate], the pest or weed control at 500 g/ha in [1] (setting [16]) was 80%; with Eleusine indica (ELEIN) (setting [17]) it was 20%; in [2] (setting [18]), 100%; in test [3] (setting [19]), 60%; with Lolium perenne (LOLPE) (setting [20]) it was 70%; in test [4] (setting [21]) it was 60%. Also, the pest or weed control at 500 g/ha in test [5] (setting [22]) was 90%; in the test with Setaria faberi (SETFA) (setting [23]) it was 70%; in [6] (setting [24]) it was 100%.

On to `O=C(O)CC[n+]1ccc(-c2ccc(C(F)(F)F)nn2)cn1` [Compound A126], for which the pest or weed control at 500 g/ha in test [1] (setting [7]) turned out to be 80%; in the test on Eleusine indica (ELEIN) (setting [8]), 90%; in test [2] (setting [9]), 100%; in [3] (setting [10]) it was 30%; in the test with Lolium perenne (LOLPE) (setting [11]), 70%; in [4] (setting [12]) it was 80%. Also, the pest or weed control at 500 g/ha in test [5] (setting [13]) turned out to be 80%; with Setaria faberi (SETFA) (setting [14]), 100%; in test [6] (setting [15]), 100%.

As for `O=C(O)C(O)C[n+]1ccc(-c2ncccn2)cn1` (stereo not drawn) [Compound A180], the pest or weed control at 500 g/ha in test [1] (setting [16]) stood at 70%; with Eleusine indica (ELEIN) (setting [17]), 90%; in test [2] (setting [18]) it was 80%; in test [3] (setting [19]), 20%; in the test with Lolium perenne (LOLPE) (setting [20]), 30%; in [4] (setting [21]) it was 60%. Further, the pest or weed control at 500 g/ha was 90% in [5] (setting [22]), 70% in the test on Setaria faberi (SETFA) (setting [23]) and 100% in test [6] (setting [24]).

For `CNC(=O)c1cnc(-c2cc[n+](CCC(=O)[O-])nc2)nc1` [Compound A93], the pest or weed control at 500 g/ha was found to be 80% in test [1] (setting [7]); 100% in the test on Eleusine indica (ELEIN) (setting [8]); 40% in test [2] (setting [9]); 20% in test [3] (setting [10]); 80% in the test with Lolium perenne (LOLPE) (setting [11]); 100% in test [4] (setting [12]). Besides, the results for the pest or weed control at 500 g/ha (in test [5] (setting [13]); in the test on Setaria faberi (SETFA) (setting [14]); in test [6] (setting [15])) were 80%, 100% and 90%, respectively.

Consider `N#Cc1cnc(-c2cc[n+](CCS(=O)(=O)[O-])nc2)cn1` [Compound A191], for which the pest or weed control at 500 g/ha in test [1] (setting [16]) stood at 10%; with Eleusine indica (ELEIN) (setting [17]), 30%; in test [2] (setting [18]), 30%; in [3] (setting [19]), 30%; in the test on Lolium perenne (LOLPE) (setting [20]) it was 30%; in [4] (setting [21]), 20%. Also, the pest or weed control at 500 g/ha in [5] (setting [22]) was determined as 30%; in the test with Setaria faberi (SETFA) (setting [23]) it was 20%; in [6] (setting [24]), 100%.

For `Cc1n[n+](CCS(=O)(=O)[O-])ccc1-c1ncccn1` [Compound A88, 2-(3-methyl-4-pyrimidin-2-yl-pyridazin-1-ium-1-yl)ethanesulfonate], the pest or weed control at 500 g/ha was 60% in [1] (setting [7]); 90% in the test with Eleusine indica (ELEIN) (setting [8]); 60% in test [2] (setting [9]); 30% in test [3] (setting [10]); 60% with Lolium perenne (LOLPE) (setting [11]); 90% in test [4] (setting [12]). For the same molecule, the figures for the pest or weed control at 500 g/ha (in test [5] (setting [13]); in the test with Setaria faberi (SETFA) (setting [14]); in [6] (setting [15])) were 70%, 70% and 100%, respectively.

`CC(C)OC(=O)CC[n+]1ccc(-c2ncccn2)cn1` [Compound A81, isopropyl 3-(4-pyrimidin-2-ylpyridazin-1-ium-1-yl)propanoate 2,2,2-trifluoroacetate]: the pest or weed control at 500 g/ha in test [1] (setting [7]) stood at 90%; with Eleusine indica (ELEIN) (setting [8]), 80%; in [2] (setting [9]), 100%; in test [3] (setting [10]), 40%; in the test with Lolium perenne (LOLPE) (setting [11]) it was 40%; in test [4] (setting [12]), 100%. Also, the pest or weed control at 500 g/ha in test [5] (setting [13]) is 90%; in the test on Setaria faberi (SETFA) (setting [14]), 90%; in test [6] (setting [15]) it was 100%.

As to `CC(CNS(=O)(=O)[O-])[n+]1ccc(-c2ncccn2)cn1` (stereo not drawn) [Compound A223], the pest or weed control at 500 g/ha worked out at 70% in test [1] (setting [16]); 90% in the test on Eleusine indica (ELEIN) (setting [17]); 80% in test [2] (setting [18]); 60% in [3] (setting [19]); 80% in the test with Lolium perenne (LOLPE) (setting [20]); 90% in test [4] (setting [21]). Further, the pest or weed control at 500 g/ha in test [5] (setting [22]) came out at 90%; with Setaria faberi (SETFA) (setting [23]), 80%; in test [6] (setting [24]), 100%.
